Common to all, as to format: cell-based, mouse
Assay [1] concerns Blimp1−YFP+-derived sebaceous gland organoids. The assay is described as follows: Real-time PCR of sebocyte differentiation markers in c-Myc inhibitor-treated SG organoids. The note with it: RT-PCR, inhibitor for 4 days. Here is the method: Organoid treatment with cMyc inhibitor 10058-F4 (50 Tocris Bioscience) or DMSO (as control) was performed for 4 days and renewed upon media change. Organoids were fixed in 4% PFA for 1 hour for immunofluorescence analysis or harvested for RNA extraction.
(§1) RNA extraction, reverse transcription and real-time PCR: RNA was isolated using Trizol (Sigma) and up to 2 μg of RNA were subjected to cDNA synthesis (Applied Biosystems). Real time PCR was carried out using the PerfeCTa SYBR Green FastMix (Quanta), with the following gene-specific primers: RpLO: […] (SEQ ID NO: 1) and ATCTGCTTGGAGCCCACAT (SEQ ID NO: 2); AR: […] (SEQ ID NO: 3) and […] (SEQ ID NO: 4); PPAR-gamma: […] (SEQ ID NO: 5) and […] (SEQ ID NO: 6); PPAR-beta: TTCCTTCCAGCAGCTGTG (SEQ ID NO: 7) and TCGCACGCGTGGACC (SEQ ID NO: 8); FASN: […] (SEQ ID NO: 9) and […] (SEQ ID NO: 10). Amplicon levels were analyzed in triplicate and quantitated relative to a standard curve comprising cDNA, and values normalized to levels of the housekeeping gene (Rpl0). Reactions were: 3 min at 95° C., then 40 cycles of 10 sec at 95° C. and 30 sec at 60° C. with addition of melt curve step: 10 sec at 95° C., and increments of 0.5° C. every 5 sec between 65° C. and 95° C.
This is in line with the reported role of c-Myc in regulating differentiation in the SG in vivo. […] Next, using Real time (RT)-PCR analysis, the levels of transcripts that are expressed in either SG differentiating or differentiated cells, which play a key role in this process were examined. Inhibition of c-Myc decreased the levels of all examined factors including Androgen Receptor (AR) and fatty acid synthase (FASN) (FIG. 4O).

Assay [2] deals with DBL-treated organoids. The assay is described as follows: RT-PCR of DBL-treated SG organoids after drug treatment. To be noted: then drug. Here is the method: as §1
The differentiation program in the SG is a multi-step process. Cells prior to the onset or during early stage of differentiation express AR, which is known to reside upstream and lead to the expression of FASN35.
Retinols, such as 13-cis RA, are known to have severe side-effects and concerns have been raised regarding the teratogenicity of these compounds. This highlights the immediate need for alternative treatments. […] Therefore, it was hypothesized that inhibition of c-Myc could serve as a beneficial treatment of acne vulgaris. For this aim, the 10058-F4 c-Myc inhibitor was administered to DBL-treated organoids and size, proliferation and differentiation were monitored.

Assay [3] concerns DBL-treated organoids. Briefly: Drug treatment of DBL-treated SG organoids (size, ORO, Ki67, cell size). The note with it: for organoid size: then drug for three days. The source says:
With a system that recapitulates important aspects of acne vulgaris, the extent that currently prescribed medications could affect its development was examined. Retinoids are derivatives of vitamin A, which serve as the first-line treatment for acne. Specifically, all-trans-Retinoic acid (ATRA; Tretinoin), formulated ATRA (Ret-Avit) and 13-cis RA (Isotrtinoin) are used worldwide. […] The differentiation program in the SG is a multi-step process. Cells prior to the onset or during early stage of differentiation express AR, which is known to reside upstream and lead to the expression of F[…]. […] Therefore, it was hypothesized that inhibition of c-Myc could serve as a beneficial treatment of acne vulgaris. For this aim, the 10058-F4 c-Myc inhibitor was administered to DBL-treated organoids and size, proliferation and differentiation were monitored.

In assay [4] the test system is Blimp1−YFP+-derived sebaceous gland organoids. The assay is described as follows: SG organoids treated with c-Myc inhibitor: size, cell size/number, proliferation, lipid staining. Here is the method: For organoid generation a total of ˜1000 cells were mixed with 50 μl of Matrigel (BD Bioscience) and plated in 24-well plates. After polymerization of Matrigel, 500 μl of HFSC media containing growth factors; 20 ng ml-1 hFGF (Peprotech), 40 ng ml-1 mEGF (Peprotech), 500 ng ml-1 hR-spondin 1, 100 ng ml-1 mNoggin (Peprotech) and B-27 Supplement (50×) (Invitrogen)) was added. Organoid treatment with cMyc inhibitor 10058-F4 (50 Tocris Bioscience) or DMSO (as control) was performed for 4 days and renewed upon media change. Organoids were fixed in 4% PFA for 1 hour for immunofluorescence analysis or harvested for RNA extraction. Antibody staining was visualized using secondary antibodies conjugated to Alexa Fluor-488, Alexa Fluor-546, and Alexa Fluor-633. Analysis was performed on Zeiss LSM 880 confocal microscope. Oil-red-O (ORO) staining was performed by incubating samples in 0.18% ORO for 20 min and washing with PBS. Next, the effect of inhibiting c-Myc activity by administering the specific c-Myc inhibitor, 10058-F4 was monitored. […] Six-day old SG organoids were supplemented with the c-Myc inhibitor for 4 days. […] Since the effect on organoid size could result from either altered cell size or number both scenarios were examined. […] Whether the effect of c-Myc inhibition originates from an effect on cell proliferation and/or differentiation was examined next. Employing IF staining with two proliferative markers, Ki67 and MCM2, indicated a significant decline in Ki67+ (69%) and MCM2+ (72%) proliferative cells (FIG. 4J-L). […] This is in line with the reported role of c-Myc in regulating differentiation in the SG in vivo. […] Next, using Real time (RT)-PCR analysis, the levels of transcripts that are expressed in either SG differentiating or differentiated cells, which play a key role in this process were examined. Inhibition of c-Myc decreased the levels of all examined factors including Androgen Receptor (AR) and fatty acid synthase (FASN) (FIG. 4O).

In a further assay the test system is SG organoids. Briefly: Acne vulgaris model: DHT, BRL, LIN administered to SG organoids (size, ORO, Ki67). The note with it: administration to organoids (single agents for 7 days; combinations). Here is the method:
Therefore, as a first step, the potent dihydrotestosterone (DHT) androgen, the PPAR-γ BRL-49653 (BRL) activator and linoleic acid (LIN) known to activate PPAR-B38 were administered to organoids.

Assay [5] deals with freshly isolated α6+; ScaI−; Blimp1−YFP+ cells. The assay is described as follows: Organoid generation from primary cells directly seeded in Matrigel with ROCK inhibitor. To be noted: cultures supplemented with ROCK inhibitor and GFs. The text has this:
It was next examined if these Blimp1+ cell-derived organoids could be generated by isolating primary α6+; ScaI−; Blimp1−YFP+ cells and directly seeding them into Matrigel without a pre-culturing phase. […] Thus, these cultures were supplemented with a ROCK inhibitor (Y27632), which prevents cell-cell interaction-dependent anoikis.

The test system of another assay is SG organoid. Briefly: SG organoid as model organ to test drugs (caspase-3 inhibitors, Tretinoin). The note with it: for attenuation of SG organoid size: 100 uM, after 72 hours. Here is the method: Organoids were generated as described herein and treated with two caspase-3 inhibitors (zDEVD-fmk at 100 uM and […] at 100 uM) to assess their effect on the SG. A known anti-acne drug, Tretinoin (10-100 uM) was also added as a positive control.

[6] abbreviates: IF staining, inhibitor for 4 days.
Setting [7] is: six-day old SG organoids, inhibitor for 4 days.

This is an account of results in patent US20210348124A1, “SEBACEOUS GLAND ORGANOIDS AND USE THEREOF” (TECHNION RESEARCH & DEVELOPMENT FOUNDATION LIMITED, priority 2018, published 2021).

On to `CCc1ccc(C=C2SC(=S)NC2=O)cc1` [10058-F4, 5-[(4-Ethylphenyl)methylene]-2-thioxo-4-thiazolidinone], for which, in assay [1], the “Androgen Receptor (AR) transcript level” value is reported as “decreased”, the PPAR-β transcript level result is given as “significantly attenuated”, the PPAR-γ transcript level result is recorded as “significantly attenuated” and the “fatty acid synthase (FASN) transcript level” value was “decreased”. For the same compound, in the assay on DBL-treated organoids [2], the “expression levels of lipid synthesis genes” value was “significantly lower”, the “mRNA level of Cyclin D1” value was “significant decrease” and the “mRNA level of c-Myc” value was “significant decrease”. Further, in the assay with DBL-treated organoids [3] (then drug), the “decrease in the number of Ki67+ cells” value is “more than 80%”, the “number of ORO+ cells” value is on record as “significant decrease” and the “size of individual inner cells” value was “decrease”. Besides, the organoid size result in the assay on DBL-treated organoids [3] was “significant decrease”. Also, in assay [4] (setting [6]), the “decline in Ki67+ proliferative cells” value is 69% and the “decline in MCM2+ proliferative cells” value came out at 72%. Further, in assay [4] (inhibitor for 4 days), the “lipid levels (ORO dye staining)” value is listed as “significant decrease”. The “decrease in organoid size” value in assay [4] (six-day old SG organoids, c-Myc inhibitor for 4 days, vs DMSO control) is on record as approximately 40%. In assay [4] (setting [7]), the “decline in cell diameter, cells in the inner compartment” value is reported as approximately 40%; the “diameter of individual cells in the outer proliferating layer of the organoid” value is reported as “modest size decrease”; the “localization of c-Myc” value is “did not affect”; the “number of cells in the outer ring of the organoids” value is given as “decreased”.

With `CCCCC/C=C\C/C=C\CCCCCCCC(=O)O` [LIN, linoleic acid], the “size of individual SG organoids” value in the assay with SG organoids is “significantly increased”.

For `C[C@@H](N)[C@H]1CC[C@H](C(=O)Nc2ccncc2)CC1` [Y27632], in assay [5], the “organoid generation from primary cells seeded into Matrigel without pre-culturing” value is given as “able to give rise to organoids, although at a lower efficiency”.

Take `CC1=C(/C=C/C(C)=C/C=C/C(C)=C/C(=O)O)C(C)(C)CCC1` [Tretinoin, all-trans-Retinoic acid]: the “number of ORO+ cells” value in the assay with DBL-treated organoids [3] (then drug) was “heightened number”. Besides, the organoid size result in the assay on DBL-treated organoids [3] is reported as “significant decrease”. Moreover, in the assay on SG organoid (10-100 uM, positive control), the “reduction of SG organoid size compared with the caspase-3 inhibitors” value was “very similar”.

As for `COC(=O)CC[C@H](NC(=O)[C@H](CC(=O)OC)NC(=O)OCc1ccccc1)C(=O)N[C@H](C(=O)N[C@@H](CC(=O)OC)C(=O)CF)C(C)C` [zDEVD-fmk], in the assay with SG organoid, the “attenuation of SG organoid size” value is given as “about 30%”. Besides, in the assay on SG organoid (caspase-3 inhibitor treatment), the “cells positive for Ki67” value is listed as “greatly reduced” and the “cells positive for MCM2” value was “greatly reduced”.

On to `CC1=C(/C=C/C(C)=C/C=C/C(C)=C\C(=O)O)C(C)(C)CCC1` [13-cis RA, 13-cis-Retinoic acid], for which, in the assay on DBL-treated organoids [3] (then drug), the “number of ORO+ cells” value is “heightened number”. Moreover, in the assay with DBL-treated organoids [3], the organoid size entry is “significant decrease”.

With `C[C@]12CCC(=O)C[C@@H]1CC[C@@H]1[C@@H]2CC[C@]2(C)[C@@H](O)CC[C@@H]12` [DHT, dihydrotestosterone], in the assay with SG organoids, the “size of individual SG organoids” value was “significantly increased”.

As for `CC(=O)OCCN1C(=O)c2c(C)nc3ccc(S(=O)(=O)N4CCOCC4)cc3c2C1=O` [Ivachtin], the “attenuation of SG organoid size” value in the assay with SG organoid is on record as “about 30%”.
